In US20230321063A1, “COMPOSITIONS AND METHODS TO REDUCE NEUROINFLAMMATION” (Seattle Children's Hospital d/b/a Seattle Children's …, priority 2020, published 2023):
“Also recorded” adds a separate entry of the source.

How the values were obtained:
Ndufs4(KO) mice [1] = assay: Rotarod assay; format: in vivo, mouse; conditions: latency to fall up to 10 min, 6 rpm
Description: Rotarod and rotarod seizures. Rotarod assays were performed using a Med Associates Inc. (Fairfax, VT) ENV-571M single lane rotarod with a black mat installed in the floor of the lane to reduce visibility of the bottom. Assays were performed by placing animals onto an already rotating rod and timing latency to fall, with a steady rotation speed set to 6 rpm (controlled by attached laptop and Med Associates software). The maximum time of each trial was 10 min, with the trial ending at that time if mice were still on the rotarod. For each assay, three trials were performed, with a minimum of 5 min between each assay. The best of the three trials was reported for the rotarod data. As detailed in the text and figure legends, rotarod was performed each 10 days of age from P30; mice in a given age group were the reported age +/−1 day.

Ndufs4(KO) mice [2] = assay: Longitudinal assessment of neurological disease symptoms (clasping, ataxia, circling); format: in vivo, mouse
Description: Longitudinal assessments of neurological disease symptoms. Clasping, ataxia, and circling were assessed by visual scoring, as previously described. As disease progresses in the Ndufs4(KO) mice animals display intermittent/transient improvement of symptoms. […] For observational assessments, lab-wide quality control discussions occurred frequently to ensure consistency between technicians/researchers. Technicians contributed equally to each treatment group to minimize any potential bias between individuals.

[3] = test system: control and Ndufs4(KO) mice; assay: Plasma ALT and AST enzymatic activity assays; format: in vivo, mouse; conditions: 300 mg/kg/day, both genotypes
Description: Plasma ALT and AST measures. Small volumes (5-10 μL) of blood were collected using tail-prick and heparinized microhematocrit tubes (Fisher Scientific cat. #22-362566), placed on ice in 15 mL sample tubes, then moved (by pipette) into 1.5 mL microcentrifuge tubes and stored at −80° C. until used for ALT and AST enzymatic assays. ALT and AST were quantified using colorimetric enzymatic activity assay kits (Sigma, cat. #'s MAK052 and MAK055, respectively) according to manufacturer recommendations. Absorbance was measured on a NanoDrop 1000 (ThermoScientific).

[4] = test system: Ndufs4(KO) mouse model of LS; assay: Survival studies and overall disease course in Ndufs4(KO) mice; format: in vivo
Description: Ndufs4(+/−) mice were bred to produce Ndufs4(KO) (Ndufs4(−/−)) offspring. Mice were weaned at 20-21 days of age. Ndufs4(KO) animals were housed with a minimum of one control littermate for warmth and stimulation. Mice were weighed, and health assessed, a minimum of 3 times per week, every other day (daily for IP injected mice, see herein). Where longitudinal blood point-of-care data was collected, this was performed during these health checks. Wetted chow in a dish on the bottom of each cage, and in-cage water bottles, were provided to all cages housing Ndufs4(KO) mice following the onset of disease so that the ability to find or reach food or water was not a limiting factor for survival.
Doses of each drug was based on published data for use in animals. […] Blood and tissue concentrations reached biologically relevant levels for each of the tested inhibitors.
Pharmacologic interventions and chow formulation. Standard mouse chow was ground to a power and mixed with drugs at the doses desired (see FIGS. 4A-4L). 300 mL of 1% agar melted in sterile water was added per kilogram of powdered chow and the mixture was pelleted and baked at 37° C. for 3-5 hours to dry. Pellets were then stored at 4° C. for short term (up to 90 days) or −20° C. for long-term (up to 6 months) storage. It was previously shown that this processing had no impact on animal health or survival (Johnson et al. Front Genet. 2015; 6:247). […]
To determine whether the benefits of mTOR inhibition in Ndufs4(KO) model result from disruption of PI3K mediated signaling, animals were treated from weaning (post-natal day 21, P21) with potent, orally available, isoform specific inhibitors of the catalytic subunits of PI3K: BYL719, GSK2636771, CAL-101, and IPI-549, inhibitors of p110α, p110β, p110δ, and p110γ, respectively.

With `FC(F)(F)c1ccc(CNc2ccc(Cc3c[nH]c4ncc(Cl)cc34)cn2)cn1` [pexidartinib, 5-[(5-chloro-1H-pyrrolo[2,3-b]pyridin-3-yl)methyl]-N-[[6-(trifluoromethyl)pyridin-3-yl]methyl]pyridin-2-amine] the “performance on rotarod assay” value (Ndufs4(KO) mice [1]) was “rescued performance; also recorded: dose-dependent effect”, the “clasping, ataxia, circling endpoints compared with mTOR inhibition” value (Ndufs4(KO) mice [2]; 200 mg/kg/day) was “roughly matched mTOR inhibition” and the “clasping, ataxia, circling endpoints compared with mTOR inhibition” value (Ndufs4(KO) mice [2]; 300 mg/kg/day) was “performed substantially better”. The “neurologic disease onset and severity as measured by clasping” value (Ndufs4(KO) mice [2]; 100, 200, and 300 mg/kg/day) was “affect neurologic disease onset and severity”, the “onset of symptoms: forelimb clasping, ataxia, and circling” value (Ndufs4(KO) mice [2]; Ndufs4(KO) mice vs untreated) was “dose-dependently delayed the onset and reduced overall incidence” and the ALT level [3] was “significantly elevated”. The AST level [3] was “significantly elevated”, the “lifespan of treated Ndufs4(KO) animals relative to treated control mice” value ([4]; 300 mg/kg/d, drug toxicity appears to limit lifespan) was “live as long as treated control mice” and the “impact on disease (overall) / disease or survival” value ([4]; Ndufs4(KO) mice) was “dramatically attenuates disease”. The survival ([4]; Ndufs4(KO) mice vs untreated) was “dramatically extended survival”, the “extension of median survival” value ([4]; Ndufs4(KO) mice, 300 mg/kg/day in chow) was 300% and the “cause of death of control animals” value ([4]; control animals on 300 mg/kg/d) was “died of unknown causes with no evident illness”. The “survival compared to untreated Ndufs4(KO) mice” value ([4]; each of 100-300 mg/kg/day, dose-dependent) was “statistically significant increase” and the “overt signs of severe neurologic sequelae prior to death” value ([4]; majority of high dose animals) was “did not show overt signs of severe neurologic sequelae prior to death”.
